Data from patent EP4786487A1, “PEPTIDE” (Peptidream Inc, priority 2023, dated 2025).
pIC50: −log10 of the molar value. Starred links: 1 amine or outer side, 2 acyl side, 3 side chain; linkers in the order of their positions; H or OH if unused. Positions of bridges follow the written chain, without caps; N, C: chain ends. Non-standard residues stand in square brackets, D forms with d. Residues, ends and D or L forms follow the SMILES beside them. Groups on a side chain read outwards from the residue. *: point of attachment. Phe(4-(4-pyridyl)) = N[C@@H](Cc1ccc(-c2ccncc2)cc1)C(=O)O; Phe(3-OCH2COOH) = N[C@@H](Cc1cccc(OCC(=O)O)c1)C(=O)O; Phe(4-COOH) = N[C@@H](Cc1ccc(C(=O)O)cc1)C(=O)O; Trp(7-aza) = N[C@@H](Cc1c[nH]c2ncccc12)C(=O)O; Piperazinyl(4-CH2COOH) = O=C(O)CN1CCN(*)CC1; Gly(N(CH2)3COOH) = O=C(O)CCCNCC(=O)O; X1 = CCCCCCC[C@H](N[*:1])C(=O)[*:2]; Gly(cPent) = N[C@H](C(=O)O)C1CCCC1; NMeCha = CN[C@@H](CC1CCCCC1)C(=O)O; NMeF = CN[C@@H](Cc1ccccc1)C(=O)O; 4Pal = N[C@@H](Cc1ccncc1)C(=O)O; Carboxymethyl = O=C(O)C*; NMeA = CN[C@@H](C)C(=O)O; CO = O=C([*:1])[*:2]; Sar = CNCC(=O)O

Key:
Format in all cases: cell-based
[1] = molecular target: T1, Myostatin (Homo sapiens, UniProt O14793); assay: Reporter gene assay for myostatin signaling in HepG2 cell line, Evaluation Procedure (1), myostatin inhibition; conditions: Method A: Myostatin 10 ng/mL; read-out: IC50 (Luciferase) Myostatin HepG2
T1 construct: active myostatin (also called mature myostatin) is a homodimer consisting of two C-terminal growth factor domains; purchased R&D systems 788-G8/CF
T1 sequence (O14793 267-375): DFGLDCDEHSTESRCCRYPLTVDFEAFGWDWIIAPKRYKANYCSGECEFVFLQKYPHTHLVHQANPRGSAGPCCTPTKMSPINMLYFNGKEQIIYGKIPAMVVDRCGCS
Summary of the method: (§1)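 HepG2 cells transfected with pGL3(CAGA)12-luciferase reporter, serum-starved in 0.1% BSA medium, then stimulated with myostatin or GDF-11 plus 4-fold peptide dilutions (0.006–100 nmol/L for myostatin, 0.12–2000 nmol/L for GDF-11) for 20–24 h at 37 °C. Luminescence read with One-Glo; IC50 calculated.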

[2] = system: Myostatin; assay: as above; conditions: Method A; GDF-11 IC50 versus Myostatin IC50
Summary of the method: as §1

[3] = molecular target: T2, GDF-11 (Homo sapiens, UniProt O95390); assay: Reporter gene assay for myostatin signaling in HepG2 cell line, Evaluation Procedure (1), GDF-11 inhibition; conditions: Method A: GDF-11 10 ng/mL; read-out: IC50 (Luciferase) GDF-11 HepG2
T2 construct: purchased R&D systems 1958-GD-G8/CF
T2 sequence (O95390 299-407): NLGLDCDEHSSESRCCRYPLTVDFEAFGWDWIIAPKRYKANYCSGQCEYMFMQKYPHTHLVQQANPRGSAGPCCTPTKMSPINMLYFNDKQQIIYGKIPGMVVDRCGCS
Summary of the method: as §1

Compound	pIC50 [1]	Selectivity [2]	pIC50 [3]
CCCCCCC[C@@H]1NC(=O)[C@H](CC2CCCCC2)N(C)C(=O)[C@H](CCCNC(=N)N)NC(=O)[C@H](Cc2ccc(C(=O)O)cc2)NC(=O)[C@H](CCCCNC(=O)N2CCN(CC(=O)O)CC2)NC(=O)[C@H]2CCCN2C(=O)[C@H]([C@@H](C)CC)NC(=O)[C@H](CC2CCCCC2)N(C)C(=O)[C@H](Cc2ccc(O)cc2)NC(=O)[C@H](Cc2c[nH]c3ccccc23)NC(=O)[C@@H](CCC(=O)O)NC(=O)[C@H](C)NC(=O)CSC[C@H](C(=O)N2CCN(CC(=O)O)CC2)NC(=O)[C@H](Cc2ccccc2)N(C)C(=O)[C@H](C)N(C)C1=O [Myostatin_99_v248] ({CH2CO}-A[dE]WY[NMeCha]I[dP]K([CO-Piperazinyl(4-CH2COOH)])[Phe(4-COOH)]R[NMeCha][X1][NMeA][NMeF][dC]-{Piperazinyl(4-CH2COOH)}; thioether N-15)	7.67	164	5.45
CC[C@H](C)[C@@H]1NC(=O)[C@H](Cc2ccccc2)N(C)C(=O)[C@H](Cc2ccc(O)cc2)NC(=O)[C@H](Cc2c[nH]c3ccccc23)NC(=O)[C@H](CO)NC(=O)[C@H](C)NC(=O)CSC[C@H](C(=O)O)NC(=O)[C@H](Cc2ccccc2)N(C)C(=O)[C@H](C)N(C)C(=O)[C@H](CC(C)C)NC(=O)[C@H](Cc2ccccc2)N(C)C(=O)[C@H](CCCNC(=N)N)NC(=O)[C@H](Cc2ccc(C(=O)O)cc2)NC(=O)[C@H](Cc2ccc(O)cc2)NC(=O)CN(C)C1=O [Myostatin_99_v175] ({CH2CO}-ASWY[NMeF]I[Sar]Y[Phe(4-COOH)]R[NMeF]L[NMeA][NMeF][dC]-OH; thioether N-15)	7.79	24	6.40
CC[C@H](C)[C@@H]1NC(=O)[C@H](Cc2ccccc2)N(C)C(=O)[C@H](Cc2ccc(O)cc2)NC(=O)[C@H](Cc2ccc(-c3ccncc3)cc2)NC(=O)[C@H](C)NC(=O)CN(CCCC(=O)O)C(=O)CSC[C@H](C(=O)O)NC(=O)[C@H](Cc2ccccc2)N(C)C(=O)[C@H](C)N(C)C(=O)[C@H](CC(C)C)NC(=O)[C@H](Cc2ccccc2)N(C)C(=O)[C@H](CCCNC(=N)N)NC(=O)[C@H](Cc2ccc(OCC(=O)O)cc2)NC(=O)[C@H](Cc2cccc(OCC(=O)O)c2)NC(=O)[C@H](C)N(C)C1=O [Myostatin_99_v83] ({CH2CO}-[Gly(N(CH2)3COOH)]A[Phe(4-(4-pyridyl))]Y[NMeF]I[NMeA][Phe(3-OCH2COOH)]Y(Carboxymethyl)R[NMeF]L[NMeA][NMeF][dC]-OH; thioether N-15)	7.68	144	5.52
CCCCCCC[C@@H]1NC(=O)[C@H](Cc2ccccc2)N(C)C(=O)[C@H](CCCNC(=N)N)NC(=O)[C@H](Cc2ccc(C(=O)O)cc2)NC(=O)[C@H](Cc2cccc(OCC(=O)O)c2)NC(=O)[C@H](C)N(C)C(=O)[C@H]([C@@H](C)CC)NC(=O)[C@H](Cc2ccccc2)N(C)C(=O)[C@H](Cc2ccc(O)cc2)NC(=O)[C@H](Cc2c[nH]c3ccccc23)NC(=O)[C@H](C)NC(=O)[C@H](C)N(C)C(=O)CSC[C@H](C(=O)O)NC(=O)[C@H](Cc2ccccc2)N(C)C(=O)[C@H](C)N(C)C1=O [Myostatin_99_v195] ({CH2CO}-[NMeA]AWY[NMeF]I[NMeA][Phe(3-OCH2COOH)][Phe(4-COOH)]R[NMeF][X1][NMeA][NMeF][dC]-OH; thioether N-15)	8.89	196	6.59
CC(C)C[C@@H]1NC(=O)[C@H](Cc2ccccc2)N(C)C(=O)[C@H](CCCNC(=N)N)NC(=O)[C@H](Cc2ccc(OCC(=O)O)cc2)NC(=O)[C@H](Cc2cccc(OCC(=O)O)c2)NC(=O)[C@H](C)N(C)C(=O)[C@H](C2CCCC2)NC(=O)[C@H](Cc2ccccc2)N(C)C(=O)[C@H](Cc2ccc(O)cc2)NC(=O)[C@H](Cc2ccc(-c3ccncc3)cc2)NC(=O)[C@H](C)NC(=O)CN(CCCC(=O)O)C(=O)CSC[C@H](C(=O)O)NC(=O)[C@H](Cc2ccccc2)N(C)C(=O)[C@H](C)N(C)C1=O [Myostatin_99_v135] ({CH2CO}-[Gly(N(CH2)3COOH)]A[Phe(4-(4-pyridyl))]Y[NMeF][Gly(cPent)][NMeA][Phe(3-OCH2COOH)]Y(Carboxymethyl)R[NMeF]L[NMeA][NMeF][dC]-OH; thioether N-15)	7.65	145	5.48
CCCCCCC[C@@H]1NC(=O)[C@H](Cc2ccccc2)N(C)C(=O)[C@H](CCCNC(=N)N)NC(=O)[C@H](Cc2ccc(C(=O)O)cc2)NC(=O)[C@H](Cc2cccc(OCC(=O)O)c2)NC(=O)[C@H](C)N(C)C(=O)[C@H]([C@@H](C)CC)NC(=O)[C@H](Cc2ccccc2)N(C)C(=O)[C@H](Cc2ccc(O)cc2)NC(=O)[C@H](Cc2c[nH]c3ncccc23)NC(=O)[C@H](CO)NC(=O)CN(CCCC(=O)O)C(=O)CSC[C@H](C(=O)O)NC(=O)[C@H](Cc2ccccc2)N(C)C(=O)[C@H](C)N(C)C1=O [Myostatin_99_v164] ({CH2CO}-[Gly(N(CH2)3COOH)]S[Trp(7-aza)]Y[NMeF]I[NMeA][Phe(3-OCH2COOH)][Phe(4-COOH)]R[NMeF][X1][NMeA][NMeF][dC]-OH; thioether N-15)	8.38	320	5.87
CC[C@H](C)[C@@H]1NC(=O)[C@H](Cc2ccccc2)N(C)C(=O)[C@H](Cc2ccc(O)cc2)NC(=O)[C@H](Cc2ccc(-c3ccncc3)cc2)NC(=O)[C@H](C)NC(=O)[C@H](C)NC(=O)CSC[C@H](C(=O)O)NC(=O)[C@H](Cc2ccccc2)N(C)C(=O)[C@H](C)N(C)C(=O)[C@H](CC(C)C)NC(=O)[C@H](Cc2ccccc2)N(C)C(=O)[C@H](CCCNC(=N)N)NC(=O)[C@H](Cc2ccc(OCC(=O)O)cc2)NC(=O)[C@H](Cc2cccc(OCC(=O)O)c2)NC(=O)CN(C)C1=O [Myostatin_99_v107] ({CH2CO}-AA[Phe(4-(4-pyridyl))]Y[NMeF]I[Sar][Phe(3-OCH2COOH)]Y(Carboxymethyl)R[NMeF]L[NMeA][NMeF][dC]-OH; thioether N-15)	8.55	166	6.33
CCCCCCC[C@@H]1NC(=O)[C@H](Cc2ccccc2)N(C)C(=O)[C@H](CCCNC(=N)N)NC(=O)[C@H](Cc2ccc(C(=O)O)cc2)NC(=O)[C@H](Cc2ccncc2)NC(=O)CN(C)C(=O)[C@H]([C@@H](C)CC)NC(=O)[C@H](Cc2ccccc2)N(C)C(=O)[C@H](Cc2ccc(O)cc2)NC(=O)[C@H](Cc2c[nH]c3ccccc23)NC(=O)[C@H](C)NC(=O)CN(CCCC(=O)O)C(=O)CSC[C@H](C(=O)O)NC(=O)[C@H](Cc2ccccc2)N(C)C(=O)[C@H](C)N(C)C1=O [Myostatin_99_v169] ({CH2CO}-[Gly(N(CH2)3COOH)]AWY[NMeF]I[Sar][4Pal][Phe(4-COOH)]R[NMeF][X1][NMeA][NMeF][dC]-OH; thioether N-15)	8.92	310	6.43
